Literature values, collected in patent US11135271B2, “Glucagon derivatives with improved stability” (HANMI PHARM. CO., LTD., priority 2014, dated 2021).

Experiments:
[1] = according to reports
[2] = when taken for 1 year

Compound	side-effect [1]	weight loss [2]
CC(C)CC(N(C)C)C1(c2ccc(Cl)cc2)CCC1 (stereo not drawn) [Sibutramine]	cardiovascular side-effects	–
Cc1c(C(=O)NN2CCCCC2)nn(-c2ccc(Cl)cc2Cl)c1-c1ccc(Cl)cc1 [Rimonabant]	central nervous system disorder	–
CCCCCCCCCCC[C@@H](C[C@@H]1OC(=O)[C@H]1CCCCCC)OC(=O)[C@H](CC(C)C)NC=O [Orlistat]	–	about 4 kg
